{"source": "patent US20260200939A1", "about": "“MOLECULAR GLUE DEGRADER COMPOUNDS AND USES THEREOF” (Novartis AG, priority 2022, published 2026)", "key": {"[1]": {"target": "T1, CDK4 (Homo sapiens, UniProt P11802)", "T1 construct": "endogenous in cells; host or cells: C33A", "experiment": "CDK4 Degradation Assay, Western blotting", "format": "cell-based", "details": "C33A cells, immunoblot", "method": "(§1) C33A cells were purchased from American Type Culture Collection (ATCC) and were cultured in Dulbecco's Modified Eagle Medium (DMEM) containing 10% (v/v) fetal bovine serum (FBS) and maintained at 37° C. with 5% CO2. 22RV1 cells were purchased from the ATCC and were cultured in RPMI-1640 Medium containing 10% (v/v) FBS and maintained at 37° C. with 5% CO2. HEK293T cells were obtained from the UC Berkeley Cell Culture Facility and were cultured in DMEM containing 10% (v/v) FBS and maintained at 37° C. with 5% CO2. K562 cells were obtained from the UC Berkeley Cell Culture Facility and were cultured in Iscove's Modified Dulbecco's Medium (IMDM) containing 10% (v/v) FBS and maintained at 37° C. with 5% CO2. MV-4-11 cells were obtained from the ATCC and were cultured in IMDM containing 10% (v/v) FBS and maintained at 37° C. with 5% CO2. A549 cells were obtained from the ATCC and were cultured in F-12K Medium containing 10% (v/v) FBS and maintained at 37° C. with 5% CO2. Mino cells were obtained from the ATCC and were cultured in RPMI-1640 Medium containing 10% (v/v) FBS and maintained at 37° C. with 5% CO2. LNCaP cells were obtained from the ATCC and were cultured in RPMI-1640 Medium containing 10% (v/v) FBS and maintained at 37° C. with 5% CO2. Unless otherwise specified, all cell culture materials were purchased from Gibco. It is not known whether HEK293T cells are from male or female origin.\n(§2) Cells were washed twice with cold PBS, scraped, and pelleted by centrifugation (700 g, 5 min, 4° C.). Pellets were resuspended in PBS, sonicated, clarified by centrifugation (12,000 g, 10 min, 4° C.), and lysate was transferred to new low-adhesion microcentrifuge tubes. Proteome concentrations were determined using BCA assay and lysate was diluted to appropriate working concentrations.\n(§3) Proteins were resolved by SDS/PAGE and transferred to nitrocellulose membranes using the Trans-Blot Turbo transfer system (Bio-Rad). Membranes were blocked with 5% BSA in Tris-buffered saline containing Tween 20 (TBS-T) solution for 30 min at RT, washed in TBS-T, and probed with primary antibody diluted in recommended diluent per manufacturer overnight at 4° C. After 3 washes with TBS-T, the membranes were incubated in the dark with IR680- or IR800-conjugated secondary antibodies at 1:10,000 dilution in 5% BSA in TBS-T at RT for 1 h. After 3 additional washes with TBST, blots were visualized using an Odyssey Li-Cor fluorescent scanner. The membranes were stripped using ReBlot Plus Strong Antibody Stripping Solution (EMD Millipore) when additional primary antibody incubations were performed. Antibodies used in this study were CDK4 (Abcam ab108357), Vinculin (Abcam ab129002), GAPDH (Cell Signaling Technology 14C10), RNF126 (Santa Cruz Biotechnology sc-376005), BRD4 (Abcam ab128874), Beta Actin (Cell Signaling Technology 13E5), PDE5 (Abcam ab259945), AR-V7 (Abcam ab273500), c-Abl (Santa Cruz Biotechnology sc-23), SMARCA2 (Abcam ab240648), LRRK2 (Abcam ab133474), BTK (Cell Signaling Technology D3H5), Androgen Receptor (Abcam ab133273)."}, "[2]": {"target": "T2, pure RNF126 protein (Homo sapiens, UniProt Q9BV68)", "T2 construct": "FLAG (C); host or cells: HEK293T", "experiment": "Mass spectrometry analysis of compound-labeled RNF126 tryptic digests", "format": "binding"}, "[3]": {"target": "T3, SMARCA2 (Homo sapiens, UniProt P51531)", "T3 construct": "endogenous in cells; host or cells: MV-4-11", "experiment": "SMARCA2 Degradation assay, Western blotting", "format": "cell-based", "method": "as §1, §2\nProteins were resolved by SDS/PAGE and transferred to nitrocellulose membranes using the Trans-Blot Turbo transfer system (Bio-Rad). […]"}, "[4]": {"target": "T4, Recombinant RNF126 (Homo sapiens, UniProt Q9BV68)", "T4 construct": "FLAG (C); host or cells: HEK293T", "experiment": "RNF126 Binding Assay, gel-based ABPP", "method": "RNF126 mammalian expression plasmid with a C-terminal FLAG tag was purchased from Origene (Origene Technologies Inc., RC204986). The plasmid was transformed into NEB 5-alpha Competent E. coli (DH5) cells (NEB product no. C2987H). The following day, a single transformed colony was used to inoculate 50 ml of nutrient rich LB medium containing kanamycin (50 μg/ml) and was incubated at 37° C. overnight, with agitation (250 rpm). A Miniprep (Qiagen) kit was used to isolate the plasmid before sequence verification with appropriate primers.\nHEK293T cells were grown to 30-50% confluency in DMEM supplemented with 10% FBS (Corning) and maintained at 37° C. with 5% CO2. Immediately before transfection, media was replaced with DMEM containing 5% FBS. Each plate was transfected with 24 μg of overexpression plasmid with 24 μL Lipofectamine 3000 (Invitrogen) in Opti-MEM. After 48 h cells were collected in PBS, lysed by sonication, and batch bound with anti-DYKDDDDK resin (GenScript, L00432) for 2 hours. Lysate and resin were washed with PBS and eluted with 133.33 μg/ml 3×FLAG peptide (ApexBio, A6001) in PBS. Five elutions were performed for 15 minutes each. Elutions were concentrated and the protein was stored in PBS. Concentration and purity was determined using the BCA assay and western blotting.\nRecombinant RNF126 ([…]) was pre-treated with either DMSO vehicle or covalent ligand at 37° C. for 30 min in 25 μL of PBS, and subsequently treated with of IA-Rhodamine (concentrations designated in figure legends) (Setareh Biotech) at room temperature for 1 h in the dark. The reaction was stopped by addition of 4×reducing Laemmli SDS sample loading buffer (Alfa Aesar). After boiling at 95° C. for 5 min, the samples were separated on precast 4-20% Criterion TGX gels (Bio-Rad). Probe-labeled proteins were analyzed by in-gel fluorescence using a ChemiDoc MP (Bio-Rad)."}, "[5]": {"test_system": "Androgen Receptor", "experiment": "Androgen Receptor Degradation assay, Western blotting", "format": "cell-based", "details": "for degradation of AR, in words: LNCaP and 22RV1 prostate cancer cells", "method": "as §1, §2, §3"}, "[6]": {"target": "T5, AR-V7 (Homo sapiens, UniProt P10275)", "T5 construct": "endogenous in cells; host or cells: 22RV1 and/or LNCaP", "T5 sequence (P10275 1-644 isoform P10275-3)": "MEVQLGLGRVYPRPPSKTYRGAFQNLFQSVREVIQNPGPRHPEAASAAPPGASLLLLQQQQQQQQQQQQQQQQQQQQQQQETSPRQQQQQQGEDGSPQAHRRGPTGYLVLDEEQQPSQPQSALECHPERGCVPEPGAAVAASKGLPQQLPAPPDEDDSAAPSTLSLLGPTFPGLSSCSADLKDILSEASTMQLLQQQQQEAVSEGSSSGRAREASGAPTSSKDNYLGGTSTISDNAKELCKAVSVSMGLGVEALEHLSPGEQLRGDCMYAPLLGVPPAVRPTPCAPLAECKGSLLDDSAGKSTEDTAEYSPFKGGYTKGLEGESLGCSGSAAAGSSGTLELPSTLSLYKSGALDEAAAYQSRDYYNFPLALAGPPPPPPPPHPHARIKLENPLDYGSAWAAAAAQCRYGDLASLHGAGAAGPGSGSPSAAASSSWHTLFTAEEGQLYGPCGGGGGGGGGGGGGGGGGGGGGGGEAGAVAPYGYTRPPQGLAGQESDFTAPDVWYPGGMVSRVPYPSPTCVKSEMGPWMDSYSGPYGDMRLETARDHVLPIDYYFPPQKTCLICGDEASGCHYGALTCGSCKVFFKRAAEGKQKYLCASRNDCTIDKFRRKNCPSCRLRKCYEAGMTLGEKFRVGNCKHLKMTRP", "experiment": "AR-V7 degradation in prostate cancer cells, Western blotting", "format": "cell-based", "details": "LNCaP and 22RV1 prostate cancer cells", "method": "as §1, with “LNCaP cells were obtained from the ATCC and were cultured in RPMI-1640 Medium containing 10% (v/v) FBS and maintained at 37° C. with 5% CO2. Unless otherwise specified, all cell culture materials were purchased from Gibco. It is not known whether HEK293T cells are from male or female origin.” left out\nCells were washed twice with cold PBS, scraped, and pelleted by centrifugation (700 g, 5 min, 4° C.). […] Proteome concentrations were determined using BCA assay and lysate was diluted to appropriate working concentrations. […]"}}}
{"compound": "COc1ccc(C(=O)/C=C/C(=O)N2CCN(c3ccc(Nc4ncc5cc(C(=O)N(C)C)n(C6CCCC6)c5n4)nc3)CC2)cc1", "note": "[Compound 113, (E)-7-cyclopentyl-2-((5-(4-(4-(4-methoxyphenyl)-4-oxobut-2-enoyl)piperazin-1-yl)pyridin-2-yl)-amino)-N,N-dimethyl-7H-pyrrolo[2,3-d]pyrimidine-6-carboxamide]", "values": [{"measurement": "CDK4 degradation, in words", "setting": "[1]", "value": "in a dose-responsive manner"}, {"measurement": "adduct on RNF126 by mass spectrometry of tryptic digests", "setting": "[2]", "value": "reacts with C32 of RNF126"}]}
{"compound": "COc1ccc(C(=O)/C=C/C(=O)N2CCN(c3cc(-c4ccccc4O)nnc3N)CC2)cc1", "note": "[Compound 128]", "values": [{"measurement": "degradation of SMARCA2, in words", "setting": "[3]; MV-4-11 leukemia cancer cells", "value": "degradation of SMARCA2 in MV-4-11 leukemia cancer cells cell in a dose-responsive manner"}, {"measurement": "binding to RNF126 (gel-based ABPP), in words", "setting": "[4]", "value": "potent binding"}]}
{"compound": "COc1ccc(C(=O)/C=C/C(=O)N2CCN(C(=O)COc3ccc(-c4csc(N5CCOCC5)n4)cc3)CC2)cc1", "note": "[Compound 132]", "values": [{"measurement": "degradation of AR, in words", "setting": "[5]", "value": "degradation of AR and AR-V7"}, {"measurement": "binding to RNF126 (gel-based ABPP), in words", "setting": "[4]", "value": "potent binding"}, {"measurement": "degradation of AR-V7, in words", "setting": "[6]", "value": "degradation of AR and AR-V7"}]}
{"compound": "COc1ccc(C(=O)/C=C/C(=O)N2CCN(c3ccc(-c4csc(N5CCOCC5)n4)cc3)CC2)cc1", "note": "[Compound 133]", "values": [{"measurement": "degradation of AR, in words", "setting": "[5]", "value": "degradation of AR and AR-V7"}, {"measurement": "binding to RNF126 (gel-based ABPP), in words", "setting": "[4]", "value": "potent binding"}, {"measurement": "degradation of AR-V7, in words", "setting": "[6]", "value": "degradation of AR and AR-V7"}]}
{"compound": "COc1ccc(C(=O)/C=C/C(=O)N2CCN(c3ccc(Nc4ncc5c(C)c(C(C)=O)c(=O)n(C6CCCC6)c5n4)nc3)CC2)cc1", "note": "[Compound 136]", "values": [{"measurement": "CDK4 degradation, in words", "setting": "[1]", "value": "capable to degrading CDK4"}, {"measurement": "binding to RNF126 (gel-based ABPP), in words", "setting": "[4]", "value": "maintained binding to RNF126"}]}
{"compound": "COc1ccc(C(=O)/C=C/C(=O)N[C@H]2C[C@H](NC(=O)CN3CCN(c4ccc(C(=O)N[C@H]5CC[C@H](Oc6ccc(C#N)c(Cl)c6)CC5)nn4)CC3)C2)cc1", "note": "[Compound 200, N-((1r,4r)-4-(3-chloro-4-cyanophenoxy)cyclohexyl)-6-(4-(2-(((1r,3r)-3-((E)-4-(4-methoxyphenyl)-4-oxobut-2-enamido)cyclobutyl)amino)-2-oxoethyl)piperazin-1-yl)pyridazine-3-carboxamide]", "values": [{"measurement": "DC50", "setting": "[5]", "value": "> 10", "unit": "µM"}]}
{"compound": "COc1ccc(C(=O)/C=C/C(=O)N[C@H]2C[C@H](NC(=O)CN3CCN(c4ccc(C(=O)N[C@H]5CC[C@H](Oc6ccc(C#N)c(Cl)c6)CC5)nn4)CC3)C2)c(F)c1", "note": "[Compound 201, N-((1r,4r)-4-(3-chloro-4-cyanophenoxy)cyclohexyl)-6-(4-(2-(((1r,3r)-3-((E)-4-(2-fluoro-4-methoxyphenyl)-4-oxobut-2-enamido)cyclobutyl)amino)-2-oxoethyl)piperazin-1-yl)pyridazine-3-carboxamide]", "values": [{"measurement": "DC50", "setting": "[5]", "value": "> 10", "unit": "µM"}]}
{"compound": "COc1ccc(C(=O)/C=C/C(=O)N[C@H]2C[C@H](NC(=O)CN3CCN(c4cc(-c5ccccc5O)nnc4N)CC3)C2)c(F)c1", "note": "[Compound 282, (E)-N-((1r,3r)-3-(2-(4-(3-amino-6-(2-hydroxyphenyl)pyridazin-4-yl)piperazin-1-yl)acetamido)cyclobutyl)-4-(2-fluoro-4-methoxyphenyl)-4-oxobut-2-enamide]", "values": [{"measurement": "DC50", "setting": "[3]", "value": "> 5", "unit": "µM"}]}
{"compound": "COc1ccc(C(=O)/C=C/C(=O)N[C@H]2C[C@H](NC(=O)CN3CCN(c4cc(-c5ccccc5O)nnc4N)CC3)C2)cc1", "note": "[Compound 283, (E)-N-((1r,3r)-3-(2-(4-(3-amino-6-(2-hydroxyphenyl)pyridazin-4-yl)piperazin-1-yl)acetamido)cyclobutyl)-4-(4-methoxyphenyl)-4-oxobut-2-enamide]", "values": [{"measurement": "DC50", "setting": "[3]", "value": "> 5", "unit": "µM"}]}
{"compound": "COc1ccc(C(=O)/C=C/C(=O)N[C@H]2C[C@H](NC(=O)CN3CCN(c4ccc(C(=O)N[C@H]5CC[C@H](Oc6ccc(C#N)c(Cl)c6)CC5)nn4)CC3)C2)c(Cl)c1", "note": "[Compound 286, N-((1r,4r)-4-(3-chloro-4-cyanophenoxy)cyclohexyl)-6-(4-(2-(((1r,3r)-3-((E)-4-(2-chloro-4-methoxyphenyl)-4-oxobut-2-enamido)cyclobutyl)amino)-2-oxoethyl)piperazin-1-yl)pyridazine-3-carboxamide]", "values": [{"measurement": "DC50", "setting": "[5]", "value": "> 10", "unit": "µM"}]}
